Source: paper PMC9415646, “Improving Aqueous Solubility and In Vitro Pharmacokinetic Properties of the 3-Nitroimidazo[1,2-a]pyridine Antileishmanial Pharmacophore” (Pharmaceuticals, 2022)
“And” between values parts separate entries of the source, which are not always exact repeats. Equal entries are not always repeated.

Assays:
[1] = Redox potential of the nitro group by cyclic voltammetry; type: physicochemical; details: cyclic voltammetry in DMSO, corrected versus NHE
Protocol: Voltammetric measurements were carried out with a potentiostat Autolab PGSTAT100 (ECO Chemie, Utrecht, The Netherlands) controlled by GPES 4.09 software (ECO Chemie, Utrecht, The Netherlands). Experiments were performed at room temperature in a homemade airtight three–electrode cell connected to a vacuum/argon line. The reference electrode consisted of a saturated calomel electrode (SCE) separated from the solution by a bridge compartment. The counter electrode was a platinum wire of 1 cm^2 apparent surface. The working electrode was a GC microdisk (1.0 mm in diameter–Bio-logic SAS). The supporting electrolyte (nBu4N)[PF6] (Fluka, 99% puriss electrochemical grade) and the solvent DMSO (Sigma-Aldrich puriss p.a. dried <0.02% water) were used as received and simply degassed under argon. The solutions used during electrochemical analyses were typically 10^−3 M in compound and 0.1 M in supporting electrolyte. Before each measurement, the solutions were degassed by bubbling Ar, and the working electrode was polished with a polishing machine (Presi P230, Eybens, France). Under the experimental conditions adopted in this work, the half-wave potential (E1/2) of the ferrocene Fc+/Fc couple in DMSO was E1/2 = 0.45 V vs. SCE. Experimental peak potentials were measured versus SCE and converted to NHE by adding 0.241 V.

[2] = Cytotoxicity on THP-1 cell line (MTT); type: cell-based; details: human, THP-1 cells, THP1 cell line
Protocol: The plates were incubated for 72 h at 37 °C. Each well plate was then microscope-examined for detecting possible precipitate formation before the medium was aspirated from the wells. 100 µL of MTT solution (0.5 mg/mL in medium) were then added to each well. Cells were incubated for 2 h at 37 °C. […] Plates were shaken vigorously (300 rpm) for 10 min. The absorbance was measured at 570 nm using a BIO-TEK ELx808 Absorbance Microplate Reader. DMSO was used as blank and doxorubicin (purchased from Sigma Aldrich) as positive control. Cell viability was calculated as percentage of control (cells incubated with DMSO). […] (Palo Alto, CA, USA). CC50 values represent the mean value calculated from three separate experiments.

[3] = tested on: L. donovani promastigotes; experiment: Antileishmanial activity against L. donovani promastigotes (MTT assay); type: cell-based; details: Leishmania donovani; promastigotes, 72 h, MTT; read-out: EC50 L. donovani Pro.
Protocol: The Leishmania species used in this study were L. donovani (MHOM/IN/00/DEVI) purchased from CNR Leishmania (Montpellier, France). Leishmania promastigote forms were grown in Schneider’s Drosophila medium (Life Technologies, Saint-Aubin, France) supplemented with 100 U/mL penicillin, 100 µg/mL streptomycin, 2 mM L-glutamine and 20% FCS (Life Technologies, Saint-Aubin, France) at 27 °C. The in vitro evaluation of the tested compound’s antileishmanial activity on promastigote forms was carried out by MTT assay according to the Mosmann protocol with some modifications. Briefly, promastigotes in log-phase were incubated at an average density of 10^6 parasites/mL in sterile 96-well plates with various concentrations of compound dissolved in DMSO (final concentration less than 0.5% v/v), in duplicate. Appropriate controls treated with DMSO, Miltefosine, Amphotericin B, Fexinidazole, and Fexinidazole sulfone (reference drugs purchased from Sigma-Aldrich, Saint-Louis, Missouri, USA) were added to each set of experiments. After a 72 h incubation period at 27 °C, parasitic metabolic activity was determined. Each plate-well was then microscope-analyzed to detect any precipitate formation. 20 µL of MTT (3-(4,5-dimethylthiazol-2-yl)-2,5-diphenyltetrazolium bromide) (Sigma-Aldrich, Saint-Louis, Missouri, USA) solution (5 mg/mL in PBS) were added to each well and incubated for 4 h at 27 °C. The enzyme reaction was then stopped by addition of 100 µL of 50% isopropanol–10% sodium dodecyl sulfate. Plates were shaken vigorously at 300 rpm for 10 min. The absorbance was measured at 570 nm in a BIO-TEK Elx808 (Biotek, Colmar, France) absorbance microplate reader. […] EC50 values were calculated by non-linear regression analysis processed dose-response curves, using TableCurve 2D V5.0 software (Systat Software Inc. (Palo Alto, CA, USA)). EC50 values represent the mean value calculated from at least three separate experiments.

[4] = tested on: L. infantum axenic amastigotes; experiment: Antileishmanial activity on L. infantum axenic amastigotes (luciferase assay); type: cell-based; details: Leishmania infantum, 48 h, read-out: EC50 L. infantum Axenic Ama.
Protocol: L. infantum promastigotes were harvested in logarithmic phase of growth by centrifugation at 900× g for 10 min. The supernatant was removed carefully and was replaced by the same volume of RPMI 1640 complete medium at pH 5.4 and incubated for 24 h at 24 °C. The acidified promastigotes were then incubated for 24 h at 37 °C in a ventilated flask to transform them into axenic amastigotes. The amastigote stage was checked both by electron microscopy (short flagellum with small bulbous tip extending beyond a spherical cell body) and RT-PCR to confirm the overexpression of ATG8 and amastin genes in amastigotes, relative to promastigotes. The effects of the tested compounds on the growth of L. infantum axenic amastigotes were assessed as follows. L. infantum amastigotes were incubated at a density of 2 × 10^6 parasites/mL in sterile 96-well plates with various concentrations of compounds dissolved in DMSO (final concentration less than 0.5% v/v), in duplicate. Appropriate controls treated with DMSO, amphotericin B, miltefosine, fexinidazole and fexinidazole sulfone were added to each set of experiments. After a 48 h incubation period at 37 °C, each plate-well was then microscopically examined to detect any precipitate formation.
• Luciferase activity and determination of EC50 were performed as above.

[5] = tested on: L. infantum promastigotes; experiment: Antileishmanial activity against L. infantum promastigotes (luciferase assay); type: cell-based; details: Leishmania infantum, 72 h, read-out: EC50 L. infantum Pro.
Protocol: L. infantum promastigotes (MHOM/MA/67/ITMAP-263, CNR Leishmania, Montpellier, France, expressing luciferase activity) were used in the following tests. The effects of the tested compounds on the growth of L. infantum promastigotes were assessed by Luciferase Assay. Briefly, promastigotes in log-phase in RPMI 1640 medium supplemented with 10% fetal calf serum (FCS), 2 mM L-glutamine and antibiotics (100U/mL penicillin, 100 µg/mL streptomycin and 50µg/mL geneticin), were incubated at an average density of 10^6 parasites/mL (100 µL/well) in sterile 96-well plates with various concentrations of compounds dissolved in DMSO (final concentration less than 0.5% v/v), in duplicate. Appropriate controls (100 µL/well) treated by DMSO and reference drugs (purchased for the majority from Sigma Aldrich) were added to each set of experiments. After a 72 h incubation period at 24 °C, each plate-well was then microscope-examined for detecting possible precipitate formation. To estimate the luciferase activities of promastigotes, 80 µL of each well are transferred in white 96-well plates, Steady Glow reagent (Promega) was added according to manufacter’s instructions, and plates were incubated for 2 min. The luminescence was measured in a FLUOstar Omega (BMG Labtech, Champigny-sur-Marne, France). […] EC50 were calculated by non-linear regression analysis processed on dose–response curves, using TableCurve 2D V5 software.

[6] = Cytotoxicity evaluation on HepG2 cell line (MTT); type: cell-based; details: human, HepG2 cells
Protocol: The tested molecules’ cytotoxicity was assessed according to the method of Mosmann with slight modifications. […] Triplicate assays were performed for each sample. Each plate-well was then microscope-examined to detect possible precipitate formation before the medium was aspirated from the wells. 100 µL of MTT (3-(4,5-dimethyl-2-thiazolyl)-2,5-diphenyl-2H-tetrazolium bromide) solution (0.5 mg/mL in medium without FCS) were then added to each well. […] Plates were shaken vigorously (700 rpm) for 10 min. The absorbance was measured at 570 nm with 630 nm as reference wavelength using a BIO-TEK ELx808 Absorbance Microplate Reader. DMSO was used as blank and doxorubicin (purchased from Sigma Aldrich) as positive control. Cell viability was calculated as percentage of control (cells incubated without compound). […] (Palo Alto, CA, USA)). CC50 values represent the mean value calculated from three separate experiments.

| SMILES | E0 (redox potential of the nitro group) [1] | CC50 at 72 h [2] | EC50 [3] | EC50 [4] | EC50 [5] | melting point | CC50 at 72 h [6] |
| --- | --- | --- | --- | --- | --- | --- | --- |
| CC(C)S(=O)(=O)Cc1nc2c(Sc3ccc(Cl)cc3)cc(Cl)cn2c1[N+](=O)[O-] [Compound 3g, 6-Chloro-8-[(4-Chlorophenyl)thio]-2-[(isopropylsulfonyl)methyl]-3-Nitroimidazo[1,2-a]pyridine] | −0.63 V | > 31.2 µM | 2.2 ± 0.3 µM | 3.2 ± 0.1 µM | 2.4 ± 0.6 µM | 208 °C | 22.2 ± 5.5 µM |
| COc1cccc2c1C(=O)c1c(O)c3c(c(O)c1C2=O)C[C@@](O)(C(=O)CO)C[C@@H]3O[C@H]1C[C@H](N)[C@H](O)[C@H](C)O1 [Doxorubicin, reference compound] | – | 0.8 ± 0.1 µM | – | – | – | – | 0.2 ± 0.02 µM |
| O=[N+]([O-])c1c(CS(=O)(=O)c2ccc(F)cc2)nc2c(Br)cc(Cl)cn12 [Compound 2e, 8-Bromo-6-Chloro-2-[(4-Fluorophenylsulfonyl)methyl]-3-Nitroimidazo[1,2-a]pyridine] | −0.64 V | 33.3 ± 1.4 µM | 2.8 ± 0.5 µM | 3.3 ± 0.1 µM | > 100 µM | 222 °C | > 7.8 µM |
| O=[N+]([O-])c1c(C[S+]([O-])c2ccccc2)nc2c(Br)cc(Cl)cn12 (centres unmarked) [Compound 5, 8-Bromo-6-Chloro-3-Nitro-2-[(phenylsulfinyl)methyl]imidazo[1,2-a]pyridine] | – | – | – | – | – | 198 °C | – |
| O=[N+]([O-])c1c(CS(=O)(=O)C2CC2)nc2c(Br)cc(Cl)cn12 [Compound 2i, 8-Bromo-6-Chloro-2-[(cyclopropylsulfonyl]methyl)-3-Nitroimidazo[1,2-a]pyridine] | −0.63 V | > 50 µM | > 25 µM | > 50 µM | > 50 µM | 250 °C | > 6.2 µM |
| O=[N+]([O-])c1c(CS(=O)(=O)c2ccc(Cl)cc2)nc2c(Br)cc(Cl)cn12 [Compound 2d, 8-Bromo-6-Chloro-2-[(4-Chlorophenylsulfonyl)methyl]-3-Nitroimidazo[1,2-a]pyridine] | −0.62 V | > 31.2 µM | 3 ± 0.4 µM | 2.1 ± 0.3 µM | 3.5 ± 0.4 µM | 222 °C | > 12.5 µM |
| O=[N+]([O-])c1c(CS(=O)(=O)CCC(F)(F)F)nc2c(Br)cc(Cl)cn12 [Compound 2j, 8-Bromo-6-Chloro-3-Nitro-2-[(3,3,3-Trifluoropropylsulfonyl)methyl]imidazo[1,2-a]pyridine] | −0.60 V and −0.6 V | 26 ± 1.2 µM | 14.4 ± 1.6 µM | 20.1 ± 5.6 µM | 1.9 ± 0.4 µM | 181 °C | 42.9 ± 12.3 µM |
| O=[N+]([O-])c1c(CS(=O)(=O)c2ccc(F)cc2)nc2c(Cl)cc(Cl)cn12 [Compound 1c, 6,8-Dichloro-2-[(4-fluorophenylsulfonyl)methyl]-3-nitroimidazo[1,2-a]pyridine] | −0.60 V and −0.6 V | 22.5 ± 1.1 µM | 5.8 ± 1.9 µM | > 1.6 µM | > 100 µM | 224 °C | > 7.8 µM |
| O=[N+]([O-])c1c(CS(=O)(=O)c2ccc(C(F)(F)F)cc2)nc2c(Cl)cc(Cl)cn12 [Compound 1d, 6,8-Dichloro-3-Nitro-2-[(4-Trifluoromethylphenylsulfonyl)methyl]imidazo[1,2-a]pyridine] | −0.60 V and −0.6 V | 23.2 ± 1.9 µM | 4.1 ± 0.4 µM | 2.2 ± 0.1 µM | > 100 µM | 196 °C | > 15.6 µM |
| CC(C)S(=O)(=O)Cc1nc2c(Br)cc(Cl)cn2c1[N+](=O)[O-] [Compound 2h, 8-Bromo-6-Chloro-2-[(isopropylsulfonyl)methyl]-3-Nitroimidazo[1,2-a]pyridine] | −0.65 V | > 100 µM | > 25 µM | > 50 µM | 61.2 ± 3.4 µM | 183 °C | > 62.5 µM |
